Reference: paper PMC9715518, “Human and rat microsomal metabolites of N-tert-butoxycarbonylmethamphetamine and its urinary metabolites in rat” (Forensic Toxicology, 2021)
“And” between values parts separate entries of the source, which are not always exact repeats. Equal values may be shown once.

Key:
[1] = pH 1.5, 37 °C; cited from earlier work
[2] = Rat administration test, urinary excretion
[3] = Microsomal metabolism test, rat liver microsomes
[4] = Microsomal metabolism test, human liver microsomes
[5] = rat no. 1, urine 0–4 h, BocMA 20 mg/kg i.p.
[6] = rat no. 1, urine 4–8 h, BocMA 20 mg/kg i.p.
[7] = rat no. 1, urine 8–24 h, BocMA 20 mg/kg i.p.
[8] = rat no. 1, urine 24–48 h, BocMA 20 mg/kg i.p.
[9] = rat no. 2, urine 0–4 h, BocMA 20 mg/kg i.p.
[10] = rat no. 2, urine 4–8 h, BocMA 20 mg/kg i.p.
[11] = rat no. 2, urine 8–24 h, BocMA 20 mg/kg i.p.
[12] = rat no. 3, urine 0–4 h, BocMA 20 mg/kg i.p.
[13] = rat no. 3, urine 4–8 h, BocMA 20 mg/kg i.p.
[14] = rat no. 3, urine 8–24 h, BocMA 20 mg/kg i.p.
[15] = rat no. 3, urine 24–48 h, BocMA 20 mg/kg i.p.
[16] = rat no. 3, urine 48–72 h, BocMA 20 mg/kg i.p.

## CC(Cc1ccccc1)N(C)C(=O)OC(C)(C)C (centres unmarked) [BocMA, N-tert-butoxycarbonylmethamphetamine]
[1]
  Half-life in model gastric juice solution: 50 min
[2]; average of 3 rats, urine 0–72 h total, BocMA 20 mg/kg i.p.
  BocMA absolute amount in urine: 16000 ng
[2]; [5]
  BocMA absolute amount in urine: 87 ng
  BocMA concentration in urine: 58 ng/mL
[2]; rat no. 1, urine 0–72 h total, BocMA 20 mg/kg i.p.
  BocMA absolute amount in urine: 240 ng
[2]; [6]
  BocMA absolute amount in urine: 8.9 ng
  BocMA concentration in urine: 8.9 ng/mL
[2]; [7]
  BocMA absolute amount in urine: 59 ng
  BocMA concentration in urine: 7.4 ng/mL
[2]; [8]
  BocMA absolute amount in urine: 84 ng
  BocMA concentration in urine: 12 ng/mL
[2]; [9]
  BocMA absolute amount in urine: 190 ng
  BocMA concentration in urine: 95 ng/mL
[2]; rat no. 2, urine 0–72 h total, BocMA 20 mg/kg i.p.
  BocMA absolute amount in urine: 310 ng
[2]; [10]
  BocMA absolute amount in urine: 78 ng
  BocMA concentration in urine: 39 ng/mL
[2]; [11]
  BocMA absolute amount in urine: 44 ng
  BocMA concentration in urine: 2.9 ng/mL
[2]; [12]
  BocMA absolute amount in urine: 2700 ng
  BocMA concentration in urine: 5400 ng/mL
[2]; rat no. 3, urine 0–72 h total, BocMA 20 mg/kg i.p.
  BocMA absolute amount in urine: 15000 ng
[2]; [13]
  BocMA absolute amount in urine: 4400 ng
  BocMA concentration in urine: 2200 ng/mL
[2]; [14]
  BocMA absolute amount in urine: 6800 ng
  BocMA concentration in urine: 680 ng/mL
[2]; [15]
  BocMA absolute amount in urine: 660 ng
  BocMA concentration in urine: 83 ng/mL
[2]; [16]
  BocMA absolute amount in urine: 810 ng
  BocMA concentration in urine: 90 ng/mL
[2]; rat urine over 72 h, average, n = 3
  Excreted BocMA as the unchanged form, share of the administered quantity: 0.13%
[2]; urine 0–72 h, BocMA 20 mg/kg i.p., n = 3
  Detection in rat urine (LC–QToF–MS): detected in urine from all rats
[3]; RLM test
  Incubation time at which peak intensity was highest: 0 min
[3]; RLM, first 3 min
  BocMA degraded: 83%
[3]; RLM, mean ± SD, n = 3
  ER (extraction ratio): 0.92 and 0.92 ± 0.01
[3]; RLM, scaled to whole liver, mean ± SD, n = 3
  CLint (estimated intrinsic clearance): 640 ± 70 mL/min/kg body wt.
[3]; RLM, well-stirred model without protein binding, mean ± SD, n = 3
  CLH (estimated hepatic clearance): 51 ± 1 mL/min/kg body wt.
[3]; rat, microsomes, pH 7.4
  half-life at 1 μg/mL: 2 ± 0.2 min
  microsomal CLint at 1 μg/mL: 360 ± 40 µL/min/mg
[4]; HLM, first 8 min
  BocMA degraded: 80%
[4]; HLM, mean ± SD, n = 3
  ER (extraction ratio): 0.90 and 0.90 ± 0.01
[4]; HLM, scaled to whole liver, mean ± SD, n = 3
  CLint (estimated intrinsic clearance): 200 mL/min/kg body wt. and 200 ± 20 mL/min/kg body wt.
[4]; HLM, well-stirred model without protein binding, mean ± SD, n = 3
  CLH (estimated hepatic clearance): 19 ± 1 mL/min/kg body wt.
[4]; human, microsomes, pH 7.4
  half-life at 1 μg/mL: 3.2 ± 0.3 min
  microsomal CLint at 1 μg/mL: 220 ± 20 µL/min/mg
